Assay results from patent US10092537B2, “Use for PAI-1 inhibitor” (RENASCIENCE CO., LTD., priority 2013, dated 2018).

How the values were obtained:
CML cells [1] = test: Chronic myelogenous leukemia model mice, CML cells engrafted onto bone marrow by FACS (Experimental Example 15); type: in vivo
Description: Chronic myelogenous leukemia model mice prepared in accordance with the procedure of Experimental Example 11 (1) were divided into 3 groups (each group: n=15) and administered respective test drugs.
(§1) Group 1: placebo group (physiological saline was administered via gavage)
(§2) Group 2: imatinib group (imatinib [150 mg/kg/day] was administered via gavage)
(§3) Group 3: imatinib+compound c group (imatinib [150 mg/kg/day] and compound c [10 mg/kg/day] were administered via gavage)
(§4) 8 days (day 8) after the day on which CML cells were intravenously inoculated (day 0), administration of test drugs to the groups was started. The placebo group and the imatinib group were administered the respective test drugs once a day from day 8 to day 14 (7 doses in total). The imatinib+compound c group was administered imatinib once a day from day 8 to day 14 (7 doses in total), and also administered compound c once a day from day 8 to day 14 (7 doses in total).
CML cells engrafted onto bone marrow were analyzed by FACS immediately before the administration of a test drug (day 8; “immediately before antitumor agent treatment” in FIG. 19), immediately after the completion of administration of a test drug (day 14; “immediately after antitumor agent treatment” in FIG. 19), and day 28 from the start of administration of a test drug (day 36; “after 28 days” in FIG. 19). […] About 50% leukemia cells were grafted on the bone marrow immediately before administration of a test drug (day 8; “immediately before antitumor agent treatment” in FIG. 19). After the tumor-bearing mice were administered a test drug 7 times (day 14), the proportion of CML cells was analyzed. […] All of the mice in the group administered physiological saline died.

CML cells [2] = test: Chronic myelogenous leukemia model mice, imatinib, PAI-1 inhibitor and G-CSF neutralizing antibody (Experimental Example 14); type: in vivo
Description: In this experiment, whether G-CSF is involved in the effect was examined. Compound a was used as a PAI-1 inhibitor.
as §1
Group 2: IM group (imatinib [150 mg/kg/day] was administered via gavage)
Group 3: IM+anti-G-CSF group (imatinib [150 mg/kg/day] was administered via gavage, G-CSF neutralizing antibody [500 μg/kg/day] was subcutaneously administered)
Group 4: IM+TM group (imatinib [150 mg/kg/day] and compound a [100 mg/kg/day] were administered via gavage)
Group 5: IM+TM+anti-G-CSF group (imatinib [150 mg/kg/day] and compound a [100 mg/kg/day] were administered via gavage, and G-CSF neutralizing antibody [500 μg/kg/day] was subcutaneously administered)
The day on which CML cells were inoculated was set as day 0, and each test drug was administered from day 8 to day 14 (7 doses in total).

[3] = tested on: CML cells (32Dp210-GFP cells); test: Chronic myelogenous leukemia model mice, imatinib and compound a (Experimental Example 11); type: in vivo, C3H/HeJ mice; conditions: imatinib 150 mg/kg/day alone
Description: p210(BCR-ABL) gene was inserted into a MIGR1 vector, and GFP cDNA was further incorporated as a reporter gene downstream of the gene (hereinafter, the vector is referred to as “p210-GFP”). p210-GFP was infected with 32D cells (C3H/HeJ mice cell line), and chronic myelogenous leukemia (hereinafter, referred to as “CML”) cells were prepared. 2.5×10^5 of the thus-obtained CML cells (32Dp210(BCR-ABL)-GFP cells, hereinafter, referred to as “32Dp210-GFP cells”) were intravenously administered into the retro-orbital plexus of C3H/HeJ mice. 7 to 10 days after the transplantation, the abundance ratio of GFP cells in the peripheral blood was analyzed, and mice with more than 3% of abundance ratio were used as chronic myelogenous leukemia model mice in the following experiments.
15 chronic myelogenous leukemia model mice prepared by using the procedure described above were divided into the following 3 groups (each group: n=15), and a test drug was administered to the mice in accordance with the protocol shown in FIG. 15A.
as §1, §2
Group 3: imatinib+compound a group (imatinib [150 mg/kg/day] and compound a [100 mg/kg/day] were administered via gavage)
(§5) 10 days (day 10) after the day on which CML cells were intravenously inoculated (day 0), administration of test drugs to the groups was started. The placebo group and the imatinib group were administered the respective test drugs once a day from day 10 to day 16 (7 doses in total). The imatinib+compound a group was administered imatinib once a day from day 10 to day 16 (7 doses in total), and also administered compound a once a day from day 10 to day 14 (5 doses in total).
As described above, 32Dp210-GFP includes GFP as a reporter gene, and thus, the CML cells having 32Dp210-GFP inserted (32Dp210-GFP cells) are GFP-positive. Therefore, using FACS (FACS (BD Biosciences: FACSCalibur), the frequency of CML cells (32Dp210-GFP cells) in mononucleic cells of the bone marrow and spleen was measured and compared between the imatinib group and the imatinib+compound a group.

[4] = tested on: CML cells (32Dp210-GFP cells); test: Chronic myelogenous leukemia model mice, imatinib and compound c (Experimental Example 12); type: in vivo; conditions: imatinib 150 mg/kg/day alone
Description: Chronic myelogenous leukemia model mice prepared in the same manner as in Experimental Example 11 were divided into the following 3 groups (each group: n=10), and the groups were administered respective test drugs in accordance with the protocol shown in FIG. 15A.
as §1, §2, §3
as §4, with “cells (32Dp210-GFP cells)” for “cells”, “of the” for “of”

CML cells [5] = test: Chronic myelogenous leukemia model mice, compound a alone, imatinib, combination (Experimental Example 16); type: in vivo; conditions: imatinib 150 mg/kg/day alone
Description: as §1
Group 2: compound a group (compound a [100 mg/kg/day] was administered via gavage)
Group 3: imatinib group (imatinib [150 mg/kg/day] was administered via gavage)
Group 4: imatinib+compound a group (imatinib [150 mg/kg/day] and compound a [100 mg/kg/day] were administered via gavage)
as §5, with “days after” for “days”, “10)” for “10) after”, “placebo group, the compound a group,” for “placebo group”, “day 16 (7” for “day 14 (5”

CML cells [6] = test: Chronic myelogenous leukemia model mice, imatinib with compound d or compound e (Experimental Example 17); type: in vivo; conditions: imatinib 150 mg/kg/day alone
Description: as §1, §2
Group 3: imatinib+compound d group (imatinib [150 mg/kg/day] and compound d [10 mg/kg/day] were administered via gavage)
Group 4: imatinib+compound e group (imatinib [150 mg/kg/day] and compound e [10 mg/kg/day] were administered via gavage)
8 days after (day 8) the day (day 0) on which CML cells were intravenously inoculated, administration of test drugs to the groups was started. The placebo group and the imatinib group were administered the respective test drugs once a day from day 8 to day 14 (7 doses in total). The imatinib+compound d group and imatinib+compound e group were administered imatinib once a day from day 8 to day 14 (7 doses in total), and also administered compound d or e once a day from day 8 to day 14 (7 doses in total).

## Cc1ccc(NC(=O)c2ccc(CN3CCN(C)CC3)cc2)cc1Nc1nccc(-c2cccnc2)n1 [imatinib, reference compound]
CML cells [1]; imatinib 150 mg/kg/day alone, day 8 to day 14, analysed day 36
  CML (leukemia) cells in the bone marrow: 55.5%
CML cells [1]; imatinib alone, day 14, after 7 doses, about 50% before treatment
  proportion of CML cells in the bone marrow: marked decrease
CML cells [2]; IM group: imatinib 150 mg/kg/day alone, placebo 15 days
  median survival period: 22 days
CML cells [2]; IM group: imatinib alone
  survival: all of the mice died by day 30
CML cells [2]; IM+anti-G-CSF group
  survival: all of the mice died by day 30
CML cells [2]; IM+anti-G-CSF group: imatinib 150 mg/kg/day + G-CSF neutralizing antibody 500 μg/kg/day
  median survival period: 23 days
[3]
  frequency of 32Dp210-GFP cells in bone-marrow mononucleic cells: about 55%
  frequency of CML cells (32Dp210-GFP cells) in the spleen: about 76%
  survival: all of the mice died by day 40
[3]; placebo 14 days
  median survival period: 27 days
[4]
  survival: all of the mice died by day 35
[4]; placebo 15.5 days
  median survival period: 23.5 days
CML cells [5]
  survival: all of the mice died by day 40
CML cells [6]
  survival: all of the mice died by day 40
